Experimental findings from patent publication US10988730B2, “Sand worm lyophilisate and uses thereof” (HEMARINA, priority 2013, dated 2021) are described below.

Test [1] relates to Lactococcus lactis SB50. Kind of test: Bioreactor culture of Lactococcus lactis SB50 (OD, dry weight, NH4OH volume, viability). It counts as cell-based. The method, then: (§1) Sample Preparation • i) Flask culture: dissolution of the powders at 200 g/l then filtration of the supernatant and addition to the flasks. • ii) Bioreactor culture: direct addition to the reactors in a proportion of 1 g/l of powder before autoclaving.
(§2) The strain used is a strain of Lactococcus lactis SB50.
(§3) The HEMARINA samples (powders in solution) were added post-sterilization after centrifugation. • ii) Bioreactor (11 useful volume) culture:
The tests were carried out overnight (15-16 h) at 30° C.
The composition of the culture medium for the strain is identical to that of the flasks, with an addition of 0.01% antifoam.
The culture conditions are the following: filling to 60% useful volume, pO2 regulated at 20% or 80% and pH regulated at 6.
1 g/l of powder are added directly to the culture medium before autoclaving.
(§4) The optical density (OD) at 600 nm is measured for each culture.

The subject of test [2] is Lactococcus lactis SB50. Put plainly: Flask culture of Lactococcus lactis SB50, optical density. The format is cell-based. The method, then: as §1
Culture Conditions • i) Flask (100 ml, 0.5 and 11) culture:
as §2
The tests were carried out overnight (16-18 h) at 30° C. with shaking at 180 rpm.
The composition of the culture medium for the strain is the following: glucose (1%), maltose (0.1%), yeast extract (2%) and minerals.
The culture conditions are the following: filling to 10% useful volume; a positive control with addition of hemin (hemoglobin of bovine origin) at 10 ppm final concentration is used.
as §3, §4

[3] abbreviates: overnight (15-16 h), 30° C., 1 g/l of powder.

Substance hemin returned a Dry weight in the test with Lactococcus lactis SB50 [1] (setting [3]) of 3.4 g/L. The substance also yielded a Viability in the test with Lactococcus lactis SB50 [1] (setting [3]) of 5.03E+09 CFU/ml. Besides, the “OD at 600 nm” value was determined as 10.9 in the test with Lactococcus lactis SB50 [1] (overnight (15-16 h), 30° C., pH 6, 1 g/l of powder) and 4.5 in the test on Lactococcus lactis SB50 [2] (overnight (16-18 h), 30° C., 180 rpm, hemin 10 ppm final concentration). For the same substance, the “Volume NH4OH (corresponding to production of lactic acid)” value with Lactococcus lactis SB50 [1] (pH regulated at 6, 1 g/l of powder) is 12.3 mL. Moreover, the active concentration entry in the test on Lactococcus lactis SB50 [2] (equivalent to that of hemin) is recorded as “approximately 0.25 ppm”.
